The record followed here is patent publication EP1144368B1, “ACETYLENIC ALPHA-AMINO ACID-BASED SULFONAMIDE HYDROXAMIC ACID TACE INHIBITORS” (priority 1999, dated 2000).

Counter-ions that a name gives are not always drawn.

One assay deals with TACE (Homo sapiens, UniProt P78536). Put plainly: TACE inhibition (fluorescent peptidyl substrate).
Sequence of TACE (P78536 215-824): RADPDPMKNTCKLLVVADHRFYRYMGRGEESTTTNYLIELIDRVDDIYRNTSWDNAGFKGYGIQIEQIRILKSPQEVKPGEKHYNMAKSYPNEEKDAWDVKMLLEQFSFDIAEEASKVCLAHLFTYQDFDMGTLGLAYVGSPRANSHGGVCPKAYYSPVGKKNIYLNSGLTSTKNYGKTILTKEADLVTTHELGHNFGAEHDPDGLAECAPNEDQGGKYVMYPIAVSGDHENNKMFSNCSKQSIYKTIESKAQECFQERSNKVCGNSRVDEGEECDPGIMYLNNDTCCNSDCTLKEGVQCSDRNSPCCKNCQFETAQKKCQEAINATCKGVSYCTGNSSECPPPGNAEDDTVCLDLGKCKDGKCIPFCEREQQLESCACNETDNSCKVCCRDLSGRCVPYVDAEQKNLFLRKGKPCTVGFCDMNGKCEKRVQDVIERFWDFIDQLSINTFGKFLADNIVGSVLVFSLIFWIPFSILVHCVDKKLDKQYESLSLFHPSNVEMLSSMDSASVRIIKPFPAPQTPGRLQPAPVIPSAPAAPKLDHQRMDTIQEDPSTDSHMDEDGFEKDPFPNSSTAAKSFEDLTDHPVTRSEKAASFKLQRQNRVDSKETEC
Conditions: not given
The class given is biochemical.
In the case of `CC#CCOc1ccc(S(=O)(=O)N[C@H](CCCNC(=O)Oc2ccc(OC)cc2)C(=O)NO)cc1` [Example 372, 4-Methoxyphenyl (4R)-4-({[4-(but-2-ynyloxy)phenyl]sulfonyl}amino)-5-(hydroxyamino)-5-oxopentylcarbamate], the IC50 stood at 8.4 nM.

Still in this assay, the particulars now being: In Vitro Inhibition of TACE, 1 uM; read-out: % Inhibition at 1 uM.
Take `CC#CCOc1ccc(S(=O)(=O)N[C@@H](CC)C(=O)NO)cc1` [Example 63]: the inhibition at 1 µM came out at 47.6%. Turning to `CC#CCOc1ccc(S(=O)(=O)N[C@@H](CCCNC(=N)N)C(=O)NO)cc1` [Example 64], the inhibition at 1 µM was determined as 67.4%. For `CC#CCOc1ccc(S(=O)(=O)N[C@@H](CCCNC(N)=NS(=O)(=O)c2ccc(C)cc2)C(=O)NO)cc1` [Example 65], the inhibition at 1 µM was 102%. On to `CC#CCOc1ccc(S(=O)(=O)N[C@@H](CC(N)=O)C(=O)NO)cc1` [Example 66], for which the inhibition at 1 µM stood at 45.6%. On to `CC#CCOc1ccc(S(=O)(=O)N[C@@H](CC(=O)O)C(=O)NO)cc1` [Example 67], for which the inhibition at 1 µM was determined as 46.2%. Take `CC#CCOc1ccc(S(=O)(=O)N[C@@H](CC(=O)OC2CCCCC2)C(=O)NO)cc1` [Example 68]: the inhibition at 1 µM came to 70.4%. With `CC#CCOc1ccc(S(=O)(=O)N[C@@H](CCN)C(=O)NO)cc1` [Example 70], the inhibition at 1 µM was 21.1%. On the same count and under the same terms, as for `CC#CCOc1ccc(S(=O)(=O)N[C@@H](CC2CCCCC2)C(=O)NO)cc1` [Example 71], the figure is 86.7%; as for `CC#CCOc1ccc(S(=O)(=O)N[C@H](C(=O)NO)C2CCCCC2)cc1` [Example 72], 57.4%; as for `CC#CCOc1ccc(S(=O)(=O)N[C@@H](CSC(C)(C)C)C(=O)NO)cc1` [Example 73], 79%.

On to `CC#CCOc1ccc(S(=O)(=O)N[C@@H](CSCc2ccc(OC)cc2)C(=O)NO)cc1` [Example 74], for which the inhibition at 1 µM amounted to 73.8%. Still for that read-out and setting: to `CC#CCOc1ccc(S(=O)(=O)N[C@H](CC(N)=O)C(=O)NO)cc1` [Example 75] belongs 55.8%; to `CC#CCOc1ccc(S(=O)(=O)N[C@H](CCCN)C(=O)NO)cc1` [Example 76], 29.7%. For `CC#CCOc1ccc(S(=O)(=O)N[C@H](CC2CCCCC2)C(=O)NO)cc1` [Example 77], the inhibition at 1 µM was determined as 105%. In the case of `CC#CCOc1ccc(S(=O)(=O)N[C@@H](C(=O)NO)C2CCCCC2)cc1` [Example 78], the inhibition at 1 µM turned out to be 101%.

Consider `CC#CCOc1ccc(S(=O)(=O)N[C@H](CC(C)C)C(=O)NO)cc1` [Example 79], for which the inhibition at 1 µM came out at 107%. Take `CC#CCOc1ccc(S(=O)(=O)N[C@H](CCSC)C(=O)NO)cc1` [Example 80]: the inhibition at 1 µM stood at 105%. For `CC#CCOc1ccc(S(=O)(=O)N[C@H](Cc2ccccc2)C(=O)NO)cc1` [Example 81], the inhibition at 1 µM came to 106%. Take `CC#CCOc1ccc(S(=O)(=O)N2CCC[C@@H]2C(=O)NO)cc1` [Example 82]: the inhibition at 1 µM is 98.4%. With `CC#CCOc1ccc(S(=O)(=O)N[C@H](Cc2c[nH]c3ccccc23)C(=O)NO)cc1` [Example 83], the inhibition at 1 µM turned out to be 105%.

Regarding `CC#CCOc1ccc(S(=O)(=O)N[C@H](Cc2ccc(O)cc2)C(=O)NO)cc1` [Example 84], the inhibition at 1 µM turned out to be 101%. Regarding `CC#CCOc1ccc(S(=O)(=O)N[C@@H](CCC(=O)O)C(=O)NO)cc1` [Example 86], the inhibition at 1 µM came to 37.5%.

For the molecule `CC#CCOc1ccc(S(=O)(=O)N[C@@H](Cc2cnc[nH]2)C(=O)NO)cc1` [Example 87], the inhibition at 1 µM came out at 47.8%. Turning to `CC#CCOc1ccc(S(=O)(=O)N2C[C@H](OCc3ccccc3)C[C@H]2C(=O)NO)cc1` [Example 88], the inhibition at 1 µM is 8.4%. For `CC#CCOc1ccc(S(=O)(=O)N[C@H](C(=O)NO)[C@@H](C)CC)cc1` [Example 89], the inhibition at 1 µM was 56.8%.

On to `CC#CCOc1ccc(S(=O)(=O)N[C@@H](CC(C)C)C(=O)NO)cc1` [Example 90], for which the inhibition at 1 µM came out at 58.9%.

With `CC#CCOc1ccc(S(=O)(=O)N[C@@H](CCCCN)C(=O)NO)cc1` [Example 92], the inhibition at 1 µM turned out to be 102%. Regarding `CC#CCOc1ccc(S(=O)(=O)N[C@@H](CCCC)C(=O)NO)cc1` [Example 93], the inhibition at 1 µM turned out to be 61.7%. `CC#CCOc1ccc(S(=O)(=O)N[C@@H](Cc2ccccc2)C(=O)NO)cc1` [Example 94]: the inhibition at 1 µM worked out at 38.2%. Turning to `CC#CCOc1ccc(S(=O)(=O)N[C@H](C(=O)NO)c2ccccc2)cc1` [Example 95], the inhibition at 1 µM worked out at 98.6%. In the case of `CC#CCOc1ccc(S(=O)(=O)N[C@@H](CSCNC(C)=O)C(=O)NO)cc1` [Example 96], the inhibition at 1 µM is 22%. For the molecule `CC#CCOc1ccc(S(=O)(=O)N[C@@H](COCc2ccccc2)C(=O)NO)cc1` [Example 97], the inhibition at 1 µM is 67.5%.

Regarding `CC#CCOc1ccc(S(=O)(=O)N[C@@H](CO)C(=O)NO)cc1` [Example 98], the inhibition at 1 µM was 2.5%. On the same count and under the same terms, as for `CC#CCOc1ccc(S(=O)(=O)N[C@H](C(=O)NO)[C@@H](C)OCc2ccccc2)cc1` [Example 99], the figure is 28.5%; as for `CC#CCOc1ccc(S(=O)(=O)N[C@@H](Cc2c[nH]c3ccccc23)C(=O)NO)cc1` [Example 101], 30.2%; as for `CC#CCOc1ccc(S(=O)(=O)N[C@@H](Cc2ccc(O)cc2)C(=O)NO)cc1` [Example 102], 27.3%.

On to `CC#CCOc1ccc(S(=O)(=O)N[C@@H](Cc2ccc(OCc3ccccc3)cc2)C(=O)NO)cc1` [Example 103], for which the inhibition at 1 µM turned out to be 52.8%. Turning to `CC#CCOc1ccc(S(=O)(=O)N[C@H](CC(=O)O)C(=O)NO)cc1` [Example 298], the inhibition at 1 µM was found to be 40%. On the same count and under the same terms, to `CC#CCOc1ccc(S(=O)(=O)N[C@H](CSCc2ccc(OC)cc2)C(=O)NO)cc1` [Example 302] belongs 3%.

The assay is the same for the next values; noted with them: Table 15: In Vitro Inhibition of TACE.
For the molecule `CC#CCOc1ccc(S(=O)(=O)N[C@@H](CSC(C)(C)C)C(=O)NO)cc1` [Example 73], the IC50 came out at 451 ± 31 nM. Molecule `CC#CCOc1ccc(S(=O)(=O)N[C@H](CC(C)C)C(=O)NO)cc1` [Example 79] gave an IC50 of 5.7 ± 2.5 nM. On to `CC#CCOc1ccc(S(=O)(=O)N[C@H](Cc2ccc(F)c(F)c2)C(=O)NO)cc1` [Example 315], for which the IC50 is 5.7 nM.

Still in this assay, the particulars now being: read-out: % Inhibition at 1 uM.
Turning to `CC#CCOc1ccc(S(=O)(=O)N[C@@H](C)C(=O)NO)cc1` [Example 62B, L-2-(4-But-2-ynyloxy-benzenesulfonylamino)-N-hydroxy-propionamide], the inhibition at 1 µM was found to be 46.2%.

For the molecule `CC#CCOc1ccc(S(=O)(=O)NCCC(=O)NO)cc1` [Example 69], the inhibition at 1 µM was 48.5%.

In the case of `CC#CCOc1ccc(S(=O)(=O)N[C@H](C(=O)NO)[C@@H](C)O)cc1` [Example 100], the inhibition at 1 µM turned out to be 15.4%. Consider `CC#CCOc1ccc(S(=O)(=O)N[C@H](C(=O)NO)C(C)C)cc1` [Example 104], for which the inhibition at 1 µM turned out to be 38.5%.

Staying with this assay, now noted: read-out: TACE IC50.
`CC#CCOc1ccc(S(=O)(=O)N(CCCCN2CCN(C)CC2)C(C(=O)NO)C(C)C)cc1` (stereo not shown) [Example 122, 2-{{[4-(2-Butynyloxy)phenyl]sulfonyl}[4-(4-methyl-1-piperazinyl)butyl]amino}-N-hydroxy-3-methylbutanamide]: the IC50 was 126 nM.

The next assay relates to THP-1 cells. The assay can be described thus: THP-1 Soluble Protein Assay (LPS-stimulated; ELISA of TNF-a, TNF-R p75/80, TNF-R p55/60, IL-8). It is filed as cell-based, human. Conditions: Homo sapiens, THP-1, 3 µM; read-out: THP % Inhibition @ 3µM.
As to `CC#CCOc1ccc(S(=O)(=O)N2C[C@H](CC(=O)NO)SC(C)(C)[C@@H]2C(=O)NO)cc1` [Example 279, (3S,6S)-4-{[4-(2-Butynyloxy)phenyl]sulfonyl}-N-hydroxy-6-[2-(hydroxyamino)-2-oxoethyl]-2,2-dimethyl-3-thiomorpholinecarboxamide], the inhibition at 3 µM amounted to 87%. Consider `CC#CCOc1ccc(S(=O)(=O)N2C[C@H](CC(N)=O)SC(C)(C)[C@@H]2C(=O)NO)cc1` [Example 280, (3S,6S)-6-(2-Amino-2-oxoethyl)-4-{[4-(2-butynyloxy)phenyl]sulfonyl}-N-hydroxy-2,2-dimethyl-3-thiomorpholinecarboxamide], for which the inhibition at 3 µM worked out at 91%.

As to `CC#CCOc1ccc(S(=O)(=O)N2C[C@H](CC(=O)N(C)C)SC(C)(C)[C@@H]2C(=O)NO)cc1` [Example 281, (3S,6S)-4-{[4-(2-Butynyloxy)phenyl]sulfonyl}-6-[2-(dimethylamino)-2-oxoethyl]-N-hydroxy-2,2-dimethyl-3-thiomorpholinecarboxamide], the inhibition at 3 µM turned out to be 76%. Same read-out and setting: as for `CC#CCOc1ccc(S(=O)(=O)N2C[C@H](CC(=O)N3CCOCC3)SC(C)(C)[C@@H]2C(=O)NO)cc1` [Example 282, (3S,6S)-4-{[4-(2-Butynyloxy)phenyl]sulfonyl}-N-hydroxy-2,2-dimethyl-6-[2-(4-morpholinyl)-2-oxoethyl]-3-thiomorpholinecarboxamide], the figure is 91%; as for `CC#CCOc1ccc(S(=O)(=O)N2C[C@H](CC(=O)N3CCN(C)CC3)SC(C)(C)[C@@H]2C(=O)NO)cc1` [Example 283, (3S,6S)-4-{[4-(2-Butynyloxy)phenyl]sulfonyl}-N-hydroxy-2,2-dimethyl-6-[2-(4-methyl-1-piperazinyl)-2-oxoethyl]-3-thiomorpholinecarboxamide hydrochloride], 90%; as for `CC#CCOc1ccc(S(=O)(=O)N2C[C@H](CC(=O)NCCN(C)C)SC(C)(C)[C@@H]2C(=O)NO)cc1` [Example 284, (3S,6S)-4-{[4-(2-Butynyloxy)phenyl]sulfonyl}-6-(2-{[2-(dimethylamino)ethyl]amino}-2-oxoethyl)-N-hydroxy-2,2-dimethyl-3-thiomorpholinecarboxamide], 88%.

With `CC#CCOc1ccc(S(=O)(=O)N2CSC(C)(C)[C@@H]2C(=O)NO)cc1` [Example 286, (4S)-3-{(4-(2-Butynyloxy)phenyl]sulfonyl}-N-hydroxy-5,5-dimethyl-1,3-thiazolidine-4-carboxamide], the inhibition at 3 µM turned out to be 73%.

`CC#CCOc1ccc(S(=O)(=O)N2CCNCCC2C(=O)NO)cc1` (stereo not shown) [Example 292, 4-{[4-(2-Butynyloxy)phenyl]sulfonyl}-N-hydroxy-1,4-diazepane-5-carboxamide]: the inhibition at 3 µM stood at 83%. Consider `CC#CCOc1ccc(S(=O)(=O)N2C=CSC(C)(C)[C@@H]2C(=O)NO)cc1` [Example 379, (3S)-4-{[4-(2-Butynyloxy)phenyl]sulfonyl}-N-hydroxy-2,2-dimethyl-3,4-dihydro-2H-1,4-thiazine-3-carboxamide], for which the inhibition at 3 µM turned out to be 85%.

Staying with this assay, now noted: Homo sapiens, THP-1, read-out: THP % inhibition @ 3 µM, 3 µM.
With `CC#CCOc1ccc(S(=O)(=O)N(CCCCN2CCN(C)CC2)C(C(=O)NO)C(C)C)cc1` (stereo not shown) [Example 122, 2-{{[4-(2-Butynyloxy)phenyl]sulfonyl}[4-(4-methyl-1-piperazinyl)butyl]amino}-N-hydroxy-3-methylbutanamide], the inhibition at 3 µM came to 69%.

The IC50 is the concentration that gives 50% inhibition. In general, inhibition refers to the change of the read-out against control, counted positive when it falls.
